Measurements published in patent publication US20220104481A1, “CRYOPRESERVATION OF STEM CELLS” (TiGenix, S.A.U., priority 2019, published 2022).

Legend:
Format in all cases: cell-based, human
[1] = test system: mature dendritic cells (mDC); experiment: Phagocytosis of Staphylococcus aureus particles by mDC co-cultured with ASCs; details: NAC-pretreated ASCs, non-contact co-culture (FIG. 12)
Experimental: After differentiation in monoculture or co-culture in vitro (the differentiation conditions, including the cytokines used, concentrations and times of differentiation, are provided in Example 7), macrophages and mDC were harvested using 0.05% Trypsin-EDTA for 10 minutes at 37° C. The phagocytic potential of polarized macrophages or mDC was assessed using pHRodo Red-conjugated S. aureus particles (Life Technologies #A10010) following manufacturer's instructions. Briefly, 50,000 mDC were transferred to a 96-well U bottom wells (Corning #3799) and the cells were rested for 60 minutes in RPMIc. Lyophilized pHRodo conjugated particles were reconstituted in 1 mL of RPMIc per vial prior to use, and particles were sonicated for 5 minutes at 20% amplitude. Then, 50 μL of pHRodo […] were added per well and the cells were incubated for 60 minutes in normoxia at 37° C. Afterwards, phagocytosis was stopped on ice and cells were washed and stained with 5 μL 7-aminoactinomycin D (7AAD) prior to FACS analysis in Fortessa cytometer (BD). Negative controls for phagocytosis were cells without pHRodo reagent. Results were analysed in FlowJo software. The intensity of the fluorescence in the PE channel is proportional to the amount of bacterial particles phagocytosed per cell.

[2] = test system: mature dendritic cells (mDC); experiment: Co-culture of monocytes with ASCs: mDC differentiation, activation clusters (microscopy); details: NAC-pretreated ASCs, donors A and B, transwell co-culture (FIGS. 10, 11)
Experimental: Frozen vials of PBMCs were thawed, counted and CD14^+ CD16^− monocytes were isolated using the Dynabeads Untouched Human Monocytes kit (Dynal #11350D), following the manufacturer's instructions.
Isolated CD14^+ CD16^− monocytes (see above) were plated in 5 mL of RPMIc at 1.5 million cells per 6-well (Falcon #353046), in normoxia. The following factors were added for differentiation into non-polarized M0 macrophages or further polarization into M1, M2 macrophages and mature dendritic cells (mDC) populations in monocultures (based on several publications, including Beyer et al., PLoS One (2012) 7(9): e45466; Erbel et al., J. Vis. Exp. (2013) 76: e50332; Zhou et al, 2014; Tarique et al, American Journal of Respiratory Cell and Molecular Biology 2015; 53(5):676-688.
Immature DC (iDC): RPMIc+5 ng/mL GM-SCF+10 ng/mL IL-4 for 5 days Maturation of DC (mDC): at day 5, add 40 ng/mL LPS (i.e. add 500 μL/well of RPMIc supplemented with 400 ng/mL LPS to the pre-existing media). Human recombinant GM-CSF (#100-22B) and IL-4 (#200-04) were from Peprotech. LPS (#L8274) was from SIGMA. The addition of GM-C SF and IL4 mediates the differentiation to immature dendritic cells (iDC); 5 days later addition of LPS induces the maturation of iDCs to mDCs, and after 2 days the phenotype and function of these mature DC were analysed in the presence or absence of the ASC. Co-Culture Experiments with ASCs […]

ASCs = experiment: MTS assay after post-thaw seeding of ASCs pretreated with compounds prior to freezing; details: for increase in mitochondrial activity compared to non-treated cells (MTS, 490 nm): pretreatment with 6 mM NAC
Experimental: ASCs from donor A were thawed by warming the vials in a 37° C. bath and diluting the freezing medium containing DMSO with fresh complete DMEM (DMEM/F-12 media—GlutaMAX™-I, Gibco, supplemented with 100 μg/mL penicillin/streptomycin and 10% FBS). Cells were centrifuged at 450 g for 6 minutes at room temperature to eliminate leftover DMSO and plated in T-175 flasks at 20.000 cells/cm^2 in complete DMEM.
A 600 mM stock of NAC (SIGMA) was prepared in Milli-Q water (Millipore). This stock was used for pre-treatment and post-treatment by adding directly 50 μL stock solution per well into 5 mL of medium, making a final concentration of 6 mM. For 2 mM, only 16.7 μL were added per well, and in the case of 12 mM, 100 μL of stock were added. DMSO was used as the vehicle for sc79 and LY294.
Following the pretreatment step, the medium was removed, the cells were washed with PBS and trypsinized using trypsin-EDTA 0.25% (ThermoFisher) for 8 minutes at 37° C. After trypsin inactivation with complete DMEM, cells were harvested and centrifuged prior to resuspension in freezing medium (FBS with 10% DMSO), and frozen into 500,000 or 1 million cells per vial and stored in liquid nitrogen for further use. Specifically, the cells were frozen at −80° C. for 24 hours in a Cool Cell® device (BioCision) and then transferred to a liquid nitrogen storage container. All experiments were performed in incubators and 37° C., 5% CO2.
[…] The CellTiter 96° Aqueous One Solution Cell Proliferation Assay is a colorimetric method for determining the number of viable cells. The CellTiter 96° Aqueous One Solution reagent contains a tetrazolium compound [3-(4,5-dimethylthiazol-2-yl)-5-(3-carboxymethoxyphenyl)-2-(4-sulfophenyl)-2H-tetrazolium, MTS] and an electron coupling reagent (phenazine ethosulfate; PES). The MTS tetrazolium compound is bioreduced by cells—presumably by NADPH or NADH produced by dehydrogenase enzymes in metabolically active cells—into a coloured formazan product that is soluble in tissue culture medium.
Briefly, 40 μL of the reagent was added to 200 μL of complete DMEM in each well and absorbance was measured after 2-3 hours at 490 nm using a […]. Each condition was measured in 6 technical repeats. The MTS assay results are presented as percentage of absorbance at 490 nm relative to the non-treated (NT) cells.

In the case of `CC(=O)N[C@@H](CS)C(=O)O` [NAC, N-Acetylcysteine], the “ability of ASCs to increase phagocytosis potential of mDCs” value [1] is reported as “did not alter their ability to increase the phagocytosis potential of mDCs”, the “ASC modulation of mDC activation (no activation clusters)” value [2] is reported as “not disrupted” and the “cell number by MTS assay versus non-treated” value (ASCs; 6 mM NAC pretreatment for 24 hours, 24 hours post-seeding after thaw (FIG. 2)) is reported as “increased cell numbers”. The “increase of mitochondrial activity after NAC pretreatment (MTS)” value (ASCs; 6 mM NAC pretreatment, FIGS. 4B & C (24 and 96 hours post-thaw)) was 15-20%, the “increase in mitochondrial activity compared to non-treated cells (MTS, 490 nm)” value (ASCs; 24 hours culture post-thaw (FIG. 4B)) was “greater than 35%” and the “increase in mitochondrial activity compared to non-treated cells (MTS, 490 nm)” value (ASCs; 96 hours culture post-thaw (FIG. 4C)) was “greater than 15%”.
